Assay results from publication PMC12711161, “Design, Synthesis, and Biological Characterization of Macromolecular Ester Prodrugs of a Selective Cyclooxygenase‐2 Inhibitor” (Chemmedchem, 2025).
Where two headings read alike, the source gives them in different places.

Columns and labels:
[1] = molecular target: T1, COX‐1 (Mus musculus, UniProt P22437); assay: COX‐1 inhibition of PGE2 production, arachidonic acid-stimulated J774 murine macrophage assay; format: cell-based; conditions: J774 cells, 15 μM arachidonic acid, PGE2 by EIA, mean of three experiments
T1 construct: endogenous in cells; host or cells: J774 murine monocyte/macrophage cell line
T1 sequence (P22437 27-602): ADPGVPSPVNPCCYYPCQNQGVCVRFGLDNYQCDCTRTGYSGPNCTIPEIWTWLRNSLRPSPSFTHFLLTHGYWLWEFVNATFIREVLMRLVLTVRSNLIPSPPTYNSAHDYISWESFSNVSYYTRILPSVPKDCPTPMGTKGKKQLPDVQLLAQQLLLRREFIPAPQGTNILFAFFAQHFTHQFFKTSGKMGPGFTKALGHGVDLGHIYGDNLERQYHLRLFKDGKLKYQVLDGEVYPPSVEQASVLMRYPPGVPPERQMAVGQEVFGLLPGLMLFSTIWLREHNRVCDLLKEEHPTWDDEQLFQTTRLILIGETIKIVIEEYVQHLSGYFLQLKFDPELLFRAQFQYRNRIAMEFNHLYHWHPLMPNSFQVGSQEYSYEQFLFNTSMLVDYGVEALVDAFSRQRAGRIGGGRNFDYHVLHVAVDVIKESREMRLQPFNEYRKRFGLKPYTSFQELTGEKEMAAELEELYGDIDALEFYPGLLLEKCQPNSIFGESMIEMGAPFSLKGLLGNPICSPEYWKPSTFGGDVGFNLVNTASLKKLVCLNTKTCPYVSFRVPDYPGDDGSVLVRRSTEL
Procedure: All tested compounds didn’t inhibit the production of PGE2 via COX‐1 in AA‐stimulated J774 macrophages.
(§1) The cell line was grown in DMEM supplemented with 2 mM glutamine, 25 mM HEPES, 100 units mL^–1 penicillin, 100 μg mL^–1 streptomycin, 10% fetal bovine serum (FBS), and 1.2% sodium pyruvate. Cells were plated in 24‐well culture plates at a density of 2.5 × 10^5 cells mL^–1 and allowed to adhere at 37 °C in 5% CO2 for 2 h. Immediately before the experiments, the culture medium was replaced with fresh medium, and cells were stimulated as previously described.^[ [64] ^] The evaluation of COX‐1 inhibitory activity was achieved by pretreating cells with test compounds (10 μM) for 15 min and then incubating them at 37 °C for 30 min with 15 μM arachidonic acid to activate the constitutive COX. At the end of the incubation, the supernatants were collected to measure PGE2 levels by an enzyme immuno‐assay (EIA). To evaluate COX‐2 activity, cells were stimulated for 24 h with Escherichia coli lipopolysaccharide (LPS, 10 μg mL^–1) to induce COX‐2, in the absence or presence of test compounds (0.001–10 μM). The supernatants were collected for the measurement of PGE2 by means of EIA. Celecoxib was utilized as a reference compound for the selectivity index. Triplicate wells were used for the various treatment conditions in the cell culture assay throughout the experiments. Results are expressed as the mean of three experiments of the % inhibition of PGE2 production by test compounds with respect to control samples. Data fit was obtained using the sigmoidal dose–response equation (variable slope) (GraphPad software). The IC50 values were calculated by the GraphPad Instat program (GraphPad software).

[2] = molecular target: T2, COX‐2 (Mus musculus, UniProt Q05769); assay: COX‐2 inhibition of PGE2 production, LPS-stimulated J774 murine macrophage assay; format: cell-based; conditions: for IC50: J774 cells, LPS 10 μg/mL 24 h, PGE2 by EIA, mean of three experiments; for COX‐1/COX‐2 [SI]: selectivity index IC50(COX‐1)/IC50(COX‐2)
T2 construct: endogenous in cells; host or cells: J774 murine monocyte/macrophage cell line, LPS-stimulated
T2 sequence (Q05769 18-604): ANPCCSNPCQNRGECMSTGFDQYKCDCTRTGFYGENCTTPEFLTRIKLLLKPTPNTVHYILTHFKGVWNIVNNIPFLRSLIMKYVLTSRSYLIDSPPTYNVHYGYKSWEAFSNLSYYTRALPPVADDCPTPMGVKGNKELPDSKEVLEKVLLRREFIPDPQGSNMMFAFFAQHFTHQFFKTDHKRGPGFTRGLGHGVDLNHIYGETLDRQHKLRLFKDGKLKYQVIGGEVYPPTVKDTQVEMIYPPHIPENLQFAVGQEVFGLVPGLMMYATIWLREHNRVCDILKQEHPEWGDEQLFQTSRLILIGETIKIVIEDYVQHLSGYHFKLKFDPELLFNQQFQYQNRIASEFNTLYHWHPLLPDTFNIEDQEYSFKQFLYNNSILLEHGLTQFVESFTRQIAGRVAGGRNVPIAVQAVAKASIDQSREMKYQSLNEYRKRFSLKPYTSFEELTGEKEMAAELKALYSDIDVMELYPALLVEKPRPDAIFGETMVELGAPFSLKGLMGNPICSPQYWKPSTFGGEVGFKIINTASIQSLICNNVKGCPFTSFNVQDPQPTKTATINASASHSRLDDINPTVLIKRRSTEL
Procedure: This required that hydrolysis was mandatory to obtain the possible release of bioactive compounds from the macromolecular ester prodrugs. […] All these considerations led us to consider the importance of the possible hydrolysis process, which could lead to release the bioactive compounds from the macromolecular ester prodrug 13a.
as §1

[3] = molecular target: T1, COX‐1; conditions: J774 murine macrophage assay, cited from earlier work
[4] = molecular target: T2, COX‐2; conditions: ref [24], cited from earlier work

Compound	IC50 [1] [nM]	IC50 [2] [nM]	COX‐1/COX‐2 [SI] [2]	further results
COc1cc(/C=C/C(=O)O)ccc1OCc1cn(CCOCCOCCOCCOCCOCCOCCC(=O)OCCOCCc2cc(-c3ccc(S(C)(=O)=O)cc3)n(-c3ccc(F)cc3)c2C)nn1 [Compound 13b, (E)‐3‐(4‐((1‐(27‐(1‐(4‐Fluorophenyl)‐2‐methyl‐5‐(4‐(methylsulfonyl)phenyl)‐1H‐pyrrol‐3‐yl)‐21‐oxo‐3,6,9,12,15,18,22,25‐octaoxaheptacosyl)‐1H‐1,2,3‐triazol‐4‐yl)methoxy)‐3‐methoxyphenyl)acrylic acid]	> 10000	50	>200	–
COc1cc(/C=C/C(=O)O)ccc1OCc1cn(CCOCCOCCOCCOCCOCCOCCc2cc(-c3ccc(S(C)(=O)=O)cc3)n(-c3ccc(F)cc3)c2C)nn1 [Compound 12b, (E)‐3‐(4‐((1‐(20‐(1‐(4‐Fluorophenyl)‐2‐methyl‐5‐(4‐(methylsulfonyl)phenyl)‐1H‐pyrrol‐3‐yl)‐3,6,9,12,15,18‐hexaoxaicosyl)‐1H‐1,2,3‐triazol‐4‐yl)methoxy)‐3‐methoxyphenyl)acrylic acid]	> 10000	> 10000	–	inhibition of PGE2 production via COX‐2 (in words) ([2]; LPS‐stimulated macrophages): completely devoid of COX‐2 inhibitory activity
Cc1c(CCOCCO)cc(-c2ccc(S(C)(=O)=O)cc2)n1-c1ccc(F)cc1 [Compound 7b]	–	–	–	IC50 ([3]; ref [27]): > 10000 nM
Cc1c(CCOCCOC(=O)CCOCCOCCOCCOCCOCCOCCN=[N+]=[N-])cc(-c2ccc(S(C)(=O)=O)cc2)n1-c1ccc(F)cc1 [Compound 14, 2‐(2‐(1‐(4‐Fluorophenyl)‐2‐methyl‐5‐(4‐(methylsulfonyl)phenyl)‐1H‐pyrrol‐3‐yl)ethoxy)ethyl 1‐azido‐3,6,9,12,15,18‐hexaoxahenicosan‐21‐oate]	> 10000	15	>666.7	–
Cc1c(CCOCCOCCOCCOCCOCCOCCN=[N+]=[N-])cc(-c2ccc(S(C)(=O)=O)cc2)n1-c1ccc(F)cc1 [Compound 19, 3‐(20‐Azido‐3,6,9,12,15,18‐hexaoxaicosyl)‐1‐(4‐fluorophenyl)‐2‐methyl‐5‐(4‐(methylsulfonyl)phenyl)‐1H‐pyrrole]	> 10000	500	>20	–
Cc1c(CCO)cc(-c2ccc(S(C)(=O)=O)cc2)n1-c1ccc(F)cc1 [Compound 21]	–	–	–	IC50 ([4]; J774 murine macrophage assay): 70 nM; COX‐1/COX‐2 [SI] ([4]; selectivity index IC50(COX‐1)/IC50(COX‐2)): >142.8; IC50 ([3]; ref [24]): > 10000 nM
